The results in this text go back to article PMC2386126, “The Mycobacterium tuberculosis Rv2540c DNA sequence encodes a bifunctional chorismate synthase” (BMC Biochemistry, 2008).

Series [1] deals with T1, MtCS (chorismate synthase, aroF, Rv2540c) (Mycobacterium tuberculosis, UniProt P9WPY1).
T1 construct: gene aroC
Put plainly: biochemical. The format is binding. As to conditions: read-out: dissociation constant.

Series [2] deals with NC(=O)C1=CN([C@@H]2O[C@H](COP(=O)(O)OP(=O)(O)OC[C@H]3O[C@@H](n4cnc5c(N)ncnc54)[C@H](O)[C@@H]3O)[C@@H](O)[C@H]2O)C=CC1. Put plainly: purified protein. The following applies: apparent, holoenzyme preincubated with 40 μM FMNox, no EPSP, 50 mM Tris-HCl pH 7.8, 25°C.

T1 sequence (P9WPY1 whole entry, looked up): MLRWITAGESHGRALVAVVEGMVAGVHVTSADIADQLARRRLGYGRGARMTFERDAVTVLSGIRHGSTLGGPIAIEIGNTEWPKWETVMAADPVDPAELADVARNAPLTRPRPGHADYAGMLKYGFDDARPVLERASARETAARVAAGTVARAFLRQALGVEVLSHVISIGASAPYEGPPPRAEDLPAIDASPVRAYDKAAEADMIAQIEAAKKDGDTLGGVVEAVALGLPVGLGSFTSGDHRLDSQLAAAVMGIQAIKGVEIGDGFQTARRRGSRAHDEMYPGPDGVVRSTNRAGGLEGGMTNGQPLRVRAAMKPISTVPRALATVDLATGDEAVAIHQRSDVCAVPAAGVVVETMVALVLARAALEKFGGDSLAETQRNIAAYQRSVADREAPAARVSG

`NC(=O)C1=CN([C@@H]2O[C@H](COP(=O)(O)OP(=O)(O)OC[C@H]3O[C@@H](n4cnc5c(N)ncnc54)[C@H](O)[C@@H]3O)[C@@H](O)[C@H]2O)C=CC1` [NADH]: the Kd in series [1] was found to be 156 ± 12 µM.

The Km is the concentration of substrate that gives half-maximal velocity. Regarding “MtCS (chorismate synthase, aroF, Rv2540c) (Mycobacterium tuberculosis H37Rv)”, the Km in series [2] was 36 ± 4 µM.
